Values quoted from earlier work as cited in paper PMC11220795 (Molecular Pharmaceutics, 2024).

conditions: decadic logarithm of molar solubility in MCTs; ref Alsenz, J. and Kuentz, M., 2019; cited from earlier work

Question: With `CC(=O)Oc1ccc(C(c2ccc(OC(C)=O)cc2)c2ccccn2)cc1` [bisacodyl] as the molecule, how does the “log10 S [M]” value read?
Answer: Its value is -2.22 M.

Question: For `COc1ccc(Cl)cc1C(=O)NCCc1ccc(S(=O)(=O)NC(=O)NC2CCCCC2)cc1` [glibenclamide], which “log10 S [M]” value is on record?
Answer: Its value is -3.62 M.

Question: For `O=C(CCCN1CCC(O)(c2ccc(Cl)cc2)CC1)c1ccc(F)cc1` [haloperidol], which “log10 S [M]” value is on record?
Answer: Its value is -2.38 M.

Question: For `C[C@]12CC[C@H]3[C@@H](CCC4=CC(=O)CC[C@@]43C)[C@@H]1CC[C@@H]2O` [testosterone], which “log10 S [M]” value is on record?
Answer: The value was -1.56 M.

Question: For `CCCCNC(=O)NS(=O)(=O)c1ccc(C)cc1` [tolbutamide], which “log10 S [M]” value is on record?
Answer: Its value is -1.85 M.

Question: With `C[C@@H]1C[C@H]2[C@@H]3CCC4=CC(=O)C=C[C@]4(C)[C@@]3(F)[C@@H](O)C[C@]2(C)[C@@]1(O)C(=O)CO` [dexamethasone] as the molecule, how does the “log10 S [M]” value read?
Answer: Its value is -3.21 M.

Question: For `Nc1ccc(S(=O)(=O)Nc2ccnn2-c2ccccc2)cc1` [sulfaphenazole], which “log10 S [M]” value is on record?
Answer: Its value is -3.03 M.

Question: For `COC1=CC(=O)C[C@@H](C)[C@]12Oc1c(Cl)c(OC)cc(OC)c1C2=O` [griseofulvin], which “log10 S [M]” value is on record?
Answer: The value was -2.59 M.

Question: With `CCc1nc(N)nc(N)c1-c1ccc(Cl)cc1` [pyrimethamine] as the molecule, how does the “log10 S [M]” value read?
Answer: The value was -2.65 M.

Question: For reserpine, which “log10 S [M]” value is on record?
Answer: Its value is -3.06 M.

Question: For `Cc1ccccc1-c1cc(N2CCOCC2)ncc1N(C)C(=O)C(C)(C)c1cc(C(F)(F)F)cc(C(F)(F)F)c1` [befetupitant], which “log10 S [M]” value is on record?
Answer: The value was -1.08 M.

Question: For `CCN(CC)CC(=O)Nc1c(C)cccc1C` [lidocaine], which “log10 S [M]” value is on record?
Answer: Its value is -0.71 M.

Question: With `NS(=O)(=O)c1cc(C(=O)O)c(NCc2ccco2)cc1Cl` [furosemide] as the molecule, how does the “log10 S [M]” value read?
Answer: The value was -3.18 M.

Question: With `CCCN(CCC)S(=O)(=O)c1ccc(C(=O)O)cc1` [probenecid] as the molecule, how does the “log10 S [M]” value read?
Answer: Its value is -2.16 M.

Question: Which “log10 S [M]” value does the source give for `COc1ccc2c(c1)c(CC(=O)OCC(=O)O)c(C)n2C(=O)c1ccc(Cl)cc1` [acemetacin] here?
Answer: Its value is -2.33 M.

Question: For `O=C(O)c1cc(/N=N/c2ccc(S(=O)(=O)Nc3ccccn3)cc2)ccc1O` [sulfasalazine], which “log10 S [M]” value is on record?
Answer: Its value is -4.24 M.

Question: For `CC(=O)CC(c1ccccc1)c1c(O)c2ccccc2oc1=O` (centres unmarked) [warfarin], which “log10 S [M]” value is on record?
Answer: Its value is -2.14 M.

Question: For `CC(=O)N1CCN(c2ccc(OCC3COC(Cn4ccnc4)(c4ccc(Cl)cc4Cl)O3)cc2)CC1` (centres unmarked) [ketoconazole], which “log10 S [M]” value is on record?
Answer: The value was -2.90 M.

Question: For `CC(=O)[C@H]1CC[C@H]2[C@@H]3CCC4=CC(=O)CC[C@]4(C)[C@H]3CC[C@]12C` [progesterone], which “log10 S [M]” value is on record?
Answer: The value was -1.05 M.

Question: For `COc1cc2c(c(OC)c1OC)-c1ccc(OC)c(=O)cc1[C@@H](NC(C)=O)CC2` [colchicine], which “log10 S [M]” value is on record?
Answer: The value was -2.34 M.

Question: For `O=C1[C@H](CC[C@H](O)c2ccc(F)cc2)[C@@H](c2ccc(O)cc2)N1c1ccc(F)cc1` [ezetimibe], which “log10 S [M]” value is on record?
Answer: Its value is -2.16 M.

Question: For `Clc1ccccc1C(c1ccccc1)(c1ccccc1)n1ccnc1` [clotrimazole], which “log10 S [M]” value is on record?
Answer: Its value is -1.45 M.

Question: Which “log10 S [M]” value does the source give for `Cc1cccc(Nc2ccccc2C(=O)O)c1C` [mefenamic acid] here?
Answer: The value was -1.97 M.

Question: Which “log10 S [M]” value does the source give for `CC(C(=O)O)c1ccc(-c2ccccc2)c(F)c1` (centres unmarked) [flurbiprofen] here?
Answer: Its value is -0.86 M.

Question: With `CCCSc1ccc2nc(NC(=O)OC)[nH]c2c1` [albendazole] as the molecule, how does the “log10 S [M]” value read?
Answer: The value was -2.91 M.

Question: Which “log10 S [M]” value does the source give for `CC(=O)Nc1ccc(O)cc1` [paracetamol] here?
Answer: The value was -2.50 M.

same assay, conditions: decadic logarithm of molar solubility in MCTs; ref Alskär, L.C., Porter, C.J. and Bergström, C.A., 2016; cited from earlier work

Question: For bezafibrate, which “log10 S [M]” value is on record?
Answer: The value was -3.22 M.

Question: Which “log10 S [M]” value does the source give for `CCN(CC)C(=S)SSC(=S)N(CC)CC` [disulfiram] here?
Answer: The value was -0.73 M.

Question: With `O=C(Nc1ccc([N+](=O)[O-])cc1Cl)c1cc(Cl)ccc1O` [niclosamide] as the molecule, how does the “log10 S [M]” value read?
Answer: The value was -2.06 M.

Question: With `CCOc1nc2cccc(C(=O)O)c2n1Cc1ccc(-c2ccccc2-c2nnn[nH]2)cc1` [candesartan] as the molecule, how does the “log10 S [M]” value read?
Answer: The value was -4.64 M.

Question: Which “log10 S [M]” value does the source give for `C#C[C@]1(O)CC[C@H]2[C@@H]3CCc4cc(O)ccc4[C@H]3CC[C@@]21C` [ethinylestradiol] here?
Answer: The value was -0.83 M.

Question: Which “log10 S [M]” value does the source give for `COc1ccc2cc([C@H](C)C(=O)O)ccc2c1` [naproxen] here?
Answer: The value was -1.38 M.

Question: With `CCOC(=O)C1=C(C)NC(C)=C(C(=O)OC)C1c1cccc(Cl)c1Cl` (centres unmarked) [felodipine] as the molecule, how does the “log10 S [M]” value read?
Answer: The value was -1.16 M.

Question: Which “log10 S [M]” value does the source give for `OCCN(CCO)c1nc(N2CCCCC2)c2nc(N(CCO)CCO)nc(N3CCCCC3)c2n1` [dipyridamole] here?
Answer: Its value is -3.56 M.

Question: With `CCC(C)n1ncn(-c2ccc(N3CCN(c4ccc(OCC5COC(Cn6cncn6)(c6ccc(Cl)cc6Cl)O5)cc4)CC3)cc2)c1=O` (centres unmarked) [itraconazole] as the molecule, how does the “log10 S [M]” value read?
Answer: Its value is -3.59 M.

Question: Which “log10 S [M]” value does the source give for `COc1cc(C)c(/C=C/C(C)=C/C=C/C(C)=C/C(=O)O)c(C)c1C` [acitretin] here?
Answer: Its value is -3.13 M.

Question: Which “log10 S [M]” value does the source give for `O=C(O)c1cc(-c2ccc(F)cc2F)ccc1O` [diflunisal] here?
Answer: The value was -1.18 M.

Question: For `CCOc1nc2cccc(C(=O)OC(C)OC(=O)OC3CCCCC3)c2n1Cc1ccc(-c2ccccc2-c2nnn[nH]2)cc1` (centres unmarked) [candesartan cilexetil], which “log10 S [M]” value is on record?
Answer: Its value is -2.93 M.

Question: For `CC(C)(Oc1ccc(C(=O)c2ccc(Cl)cc2)cc1)C(=O)O` [fenofibric acid], which “log10 S [M]” value is on record?
Answer: Its value is -2.21 M.

Question: For `COC(=O)Nc1nc2ccc(Sc3ccccc3)cc2[nH]1` [fenbendazole], which “log10 S [M]” value is on record?
Answer: The value was -3.20 M.

Question: For `CCCCN(CCCC)CCC(O)c1cc2c(Cl)cc(Cl)cc2c2cc(C(F)(F)F)ccc12` (centres unmarked) [halofantrine], which “log10 S [M]” value is on record?
Answer: Its value is -0.70 M.

same assay, conditions: decadic logarithm of molar solubility in MCTs; ref Wyttenbach, N. 2007, AAPS PharmSci360 Poster W4355; cited from earlier work

Question: Which “log10 S [M]” value does the source give for `Nc1ccc(S(=O)(=O)Nc2nccs2)cc1` [sulfathiazole] here?
Answer: The value was -3.93 M.

same assay, conditions: decadic logarithm of molar solubility in MCTs; ref Wyttenbach, N., Niederquell, A., Ectors, P. and Kuentz, M., 2022; cited from earlier work

Question: For `Cc1ccc(-c2cc(C(F)(F)F)nn2-c2ccc(S(N)(=O)=O)cc2)cc1` [celecoxib], which “log10 S [M]” value is on record?
Answer: Its value is -1.66 M.

Question: Which “log10 S [M]” value does the source give for `c1ccc(-c2ccc(C(c3ccccc3)n3ccnc3)cc2)cc1` (centres unmarked) [bifonazole] here?
Answer: The value was -1.97 M.

Question: Which “log10 S [M]” value does the source give for `NC(=O)N1c2ccccc2C=Cc2ccccc21` [carbamazepine] here?
Answer: Its value is -2.09 M.

Question: For `O=c1[nH]c2ccccc2n1C1CCN(CCCC(c2ccc(F)cc2)c2ccc(F)cc2)CC1` [pimozide], which “log10 S [M]” value is on record?
Answer: Its value is -2.82 M.

Question: For `COc1ccccc1OCCNCC(O)COc1cccc2[nH]c3ccccc3c12` (centres unmarked) [carvedilol], which “log10 S [M]” value is on record?
Answer: The value was -2.46 M.
